From patent US20230271950A1, “ANTIBACTERIAL PICOLINAMIDE COMPOUNDS” (University of Notre Dame Du Lac, priority 2020, published 2023) come the findings set out here.

The test system of series [1] is C. difficile. Nature of the series: MIC by broth microdilution against C. difficile strains. It counts as cell-based, Clostridioides difficile. To be noted: for MIC: Clostridioides difficile. In general terms: In broth dilution the organism is exposed to a series of concentrations in liquid medium.
Series [2] deals with S. aureus ATCC29213. Nature of the series: MIC against MSSA. Conditions: Staphylococcus aureus; MSSA ATCC 29213; Table 10, unit inferred; read-out: Activity (MIC) against S. aureus. It counts as cell-based, Staphylococcus aureus.
In series [3] the test system is E. faecium NCTC7171. Briefly: MIC against E. faecium. It counts as cell-based, Enterococcus faecium. Conditions: Enterococcus faecium, NCTC7171; E. faecium NCTC 7171; Table 10, unit inferred; read-out: Activity (MIC) against E. faecium.
Series [4] concerns HeLa cells. Briefly: XTT cytotoxicity assay with HeLa cells. It counts as cell-based. Conditions: Homo sapiens, Table 6. The protocol: XTT assay. Cytotoxicity assays were performed in triplicate against HeLa cells (ATCC CCL-2). The IC50 values were calculated by nonlinear regression with GraphPad Prism 5 (San Diego, Calif.).
XTT assay. XTT assays were performed with HeLa cells (ATCC CCL-2) in triplicate, as previously described (Lancet 2008, 371, 1486). IC50 values were determined by nonlinear regression using GraphPad Prism 5 (San Diego, Calif.).
In general terms: Tetrazolium assays rely on reduction of a dye to a coloured formazan, in cell work by metabolically active cells.

Series [5] in a line: Pharmacokinetics study in mice (plasma and feces levels). It counts as in vivo. To be noted: for Conc. feces/MIC: dose 20 mg · kg^−1; for concentration at 8 h: female, CD-1, mouse, single oral gavage, dose 20 mg · kg^−1, feces collected after 8 h, read-out: Drug concentration in fecal samples (mg kg^−1 feces). The protocol:
Pharmacokinetics (PK) study. Mice (n=2 per time point) were given a single 100 μL solution of 5 mg/mL of compound 1 (equivalent to 20 mg/kg). Terminal blood was collected in heparinized syringes by cardiac puncture at 30 min, 1 h, 2 h, 4 h, and 8 h. The two mice at the 8-h time point were place in metabolism cages for collection of feces. Compound 1 was dissolved in 5% DMSO/95% water with 96 mg/mL of sodium bicarbonate. Blood was centrifuged at 1,000 g for 20 min at 4° C. and plasma was separated and stored at −80° C. until analysis. A 45-μL aliquot of plasma was mixed with 5 μL of H2O:ACN (1:1) and was quenched with 100 μL of acetonitrile containing 20 μM of internal standard (compound 10). The sample was centrifuged at 21,000 g for 15 min at 4° C. to precipitate the proteins, and the resulting supernatant was analyzed by UPLC-TQD detector using multiple-reaction monitoring (MRM). Calibration curves for compound 1 were prepared from 0 to 102.4 μM using a control mouse plasma (50 μL). Peak area ratios relative to internal standard and linear regression was used from which the concentrations in plasma samples from the PK study were determined.
An average of 250 mg of feces were collected at 8 h from two mice, and subsequently homogenized with 6 times the feces volume (1,500 μL of H2O:ACN 1:1) using a Bullet Blender (Next Advance, Inc., Troy, N.Y.). The homogenate was centrifuged at 21,000 g for 5 min. The fecal supernatant (72 μL) was mixed with 8 μL of a solution of H2O:ACN (1:1) and 40 μL of 50 μM of the internal standard in ACN with 0.5% formic acid. A calibration curve was prepared from 0 μM to 102.4 μM in control mouse feces. Plasma and feces were analyzed on a Waters TQD tandem quadrupole detector (Waters Corporation, Milford, Mass.) using a YMC-Triart C18 100 mm×2.0 mm column (3μ, YMC Co. Ltd, Kyoto, Japan). The chromatographic conditions consisted of elution with 30% H2O/70% ACN containing 0.10% formic acid for 5 min at a flow rate 0.5 mL/min. Mass Spectrometry acquisition was performed in the positive electrospray ionization mode with MRM. The capillary, cone, extractor and RF lens voltages were set at 2.8 kV, 40 V, 1 V and 0.1 V, respectively. The desolvation and cone gas (nitrogen) flow rates were 650 L/h and 50 L/h, respectively. The source temperature was set at 150° C. The desolvation temperature was 350° C. The MRM transitions used were 459.4→254.0 for compound 1, and 294.8→133.5 for the internal standard.
Animals. Female C57BL/6 mice weighing 18-20 g and 6-8 weeks of age were used for the efficacy study (Jackson, Bar Harbor, Me.). Female CD-1 mice (24-31 g and 7-8 weeks of age) were used for the PK study. They were housed in groups of five mice in sterile polycarbonate shoeboxes with bedding consisting of ¼-inch corncob (The Andersons Ind., Maumee, Ohio) and Alpha-Dri (Shepherd Specialty Papers, Inc., Richland, Mich.). Mice were maintained on a 12-h light/dark cycle at 72° F. and were given Teklad 2918 irradiated extruded rodent diet and water ad libitum. All procedures were performed in accordance with and approved by the University of Notre Dame Institutional Animal Care and Use Committee.
Pharmacokinetics (PK) Studies. Compounds 4, 87, 107, and 108 were dissolved in 10% DMSO, 25% propylene glycol, 15% Tween 80 and 50% water at concentrations of 5 mg/mL or 10 mg/mL. Compound 116 was dissolved in 5% DMSO, 95% water with 96 mg/mL of sodium bicarbonate. Mice (n=2 per time point) were given a single 100 μL oral gavage of the test compound (equivalent to either 10 mg/kg and/or 20 mg/kg), and terminal blood was collected in heparinized syringes by cardiac puncture at 30 min, 1 h, 2 h, 4 h, and 8 h. An average of 250 mg of feces were collected after 8 h from two mice housed in metabolism cages in each group for further analysis. Blood was centrifuged at 1000 g for 2 min at 4° C. to obtain plasma. Plasma and fecal samples were stored at −80° C. until analysis. […]

Series [6] has as its system MRSA (NRS70, NRS119). Briefly: MIC against MRSA strains. The format is cell-based, Staphylococcus aureus. To be noted: Staphylococcus aureus, NRS70 strain; Table 3 (SAR^2 and SAR^3); read-out: MIC MRSA.
Series [7] relates to C. difficile ATCC43255. Nature of the series: Macromolecular synthesis assay (radioactive precursor incorporation). It counts as cell-based, Clostridioides difficile. Conditions: 0.5×MIC, N-acetyl-d-[6-^3H]glucosamine incorporation, 120 min. The method, then:
FIG. 2. Mechanism of action of compound 1. (A) Macromolecular biosynthesis assays: Compound 1 was incubated with C. difficile ATCC43255 at 0.5×MIC. […] The incubation time was 60 min for DNA, 120 min for peptidoglycan synthesis and RNA, and 180 min for protein synthesis. (B-G) Imaging of C. difficile […] vegetative cells (logarithmic growth) by scanning electron microscopy.
The mechanism of action of 1 was investigated using macromolecular synthesis assays. These assays measure the incorporation of radioactive precursors ([2,8-^3H]-adenine, [5,6-^3H]-uridine, 1-[3,4,5-^3H(N)]-leucine, and N-acetyl-d-[6-^3H]glucosamine) respectively into DNA, RNA, protein, and peptidoglycan. […] This analysis visualizes the cell wall as the outermost layer of the cell envelope of Gram-positive bacteria such as C. difficile.
Macromolecular synthesis assay. The macromolecular synthesis assay was performed by established methods. […] The radiolabeled precursors were purchased from Perkin Elmer (Waltham, Mass., USA).

The mark [8] stands for this setting: C. difficile, Table 8, read-out: MIC.
The mark [9] stands for this setting: ATCC43255, ATCC 43255, ribotype 087, Table 3 (SAR^2 and SAR^3), read-out: MIC C. difficile.
The mark [10] stands for this setting: MIC MRSA/MIC C. difficile, Table 3.

≈ marks a conversion by molar mass, not a printed value. Read-outs that look alike come from different tables or passages of the source. Some results are limits rather than exact numbers.

In general, MIC refers to the smallest concentration in the dilution series that meets the test's criterion for growth inhibition. By IC50 is commonly meant the concentration needed to halve the response being measured. Lower therefore signals greater potency in that assay. Regarding `O=C([O-])c1ccc2oc(NC(=O)c3cc(Oc4ccc(F)c(F)c4)ccn3)nc2c1.[Na+]` [Compound 116, Sodium 2-(4-(3,4-difluorophenoxy)picolinamido)benzo[d]oxazole-5-carboxylate], the MIC in series [1] (ATCC43255, C. difficile ATCC 43255, read-out: MIC against C. difficile) was determined as 0.5 µg/mL; in series [1] (setting [8]), 0.5 µg/mL; in series [2], 128 µg/mL; in series [3], 128 µg/mL. The same compound displayed a Selectivity in series [1] (Table 8) of 128. In series [4], this compound gave an IC50 of over 128 µg/mL. The “Conc. feces/MIC” value in series [5] came out at 7.4. In addition, the concentration at 8 h in series [5] is 3700 ng/g.

On to `O=C(Nc1ncco1)c1cc(-c2cc(F)cc(F)c2)ccn1` [Compound 94, 4-(3,5-Difluorophenyl)-N-(oxazol-2-yl)picolinamide], for which the MIC is 1 µg/mL (≈ 3.32 µM) in series [1] (setting [9]), 64 µg/mL (≈ 212 µM) in series [6], at least 128 µg/mL in series [2] and at least 128 µg/mL in series [3]. For the same compound, in series [1] (setting [10]), the Selectivity is listed as 64. The same compound gave an IC50 in series [4] of 40.1 ± 1.6 µg/mL (≈ 133 µM).

Regarding `O=C(Nc1ncco1)c1cc(-c2ccc(Cl)c(F)c2)ccn1` [Compound 92, 4-(4-Chloro-3-fluorophenyl)-N-(oxazol-2-yl)picolinamide], the MIC in series [1] (setting [9]) was 0.25 µg/mL (≈ 0.787 µM); in series [6] it was 128 µg/mL (≈ 403 µM); in series [2] it was at least 128 µg/mL; in series [3], at least 128 µg/mL. The Selectivity in series [1] (setting [10]) is listed as 512. Also, the IC50 in series [4] is over 256 µg/mL.

Consider `Cc1onc(-c2ccccc2)c1C(=O)N[C@@H]1C(=O)N2[C@@H]1SC(C)(C)[C@@H]2C(=O)O` [oxacillin, reference compound], for which the MIC in series [1] (ATCC43255, C. difficile ATCC43255, FIG. 2 legend, read-out: MIC of positive controls) is 8 µg/mL. Besides, in series [7], the “inhibition of cell-wall peptidoglycan biosynthesis” value was 51±1%.

Regarding `O=C(Nc1ncco1)c1cc(-c2ccc(F)c(F)c2)ccn1` [Compound 90, 4-(3,4-Difluorophenyl)-N-(oxazol-2-yl)picolinamide], the MIC is 0.5 µg/mL (≈ 1.66 µM) in series [1] (setting [9]), 128 µg/mL (≈ 425 µM) in series [6], at least 128 µg/mL in series [2] and at least 128 µg/mL in series [3]. Besides, in series [1] (setting [10]), the Selectivity worked out at 256. In series [4], this compound came in with an IC50 of over 64 µg/mL.

Take `O=C(Nc1ncco1)c1cc(-c2ccc(C(F)(F)F)cc2)ccn1` [Compound 97, N-(Oxazol-2-yl)-4-(4-(trifluoromethyl)phenyl)picolinamide]: the MIC was 0.25 µg/mL (≈ 0.75 µM) in series [1] (setting [9]), 128 µg/mL (≈ 384 µM) in series [6], at least 128 µg/mL in series [2] and at least 128 µg/mL in series [3]. This compound also had a Selectivity in series [1] (setting [10]) of 512. Besides, inhibition in series [4] was half-maximal at 135 ± 8.6 µg/mL (≈ 405 µM) (IC50).

Take `O=C(Nc1ncco1)c1cc(Oc2cccc(F)c2)ccn1` [Compound 107, 4-(3-Fluorophenoxy)-N-(oxazol-2-yl)picolinamide]: the MIC in series [1] (setting [8]) came out at 1 µg/mL (≈ 3.34 µM); in series [2], 64 µg/mL (≈ 214 µM); in series [3], 64 µg/mL (≈ 214 µM). In series [1] (Table 8), the Selectivity is over 256. Further, 88 ± 2.3 µg/mL (≈ 294 µM) corresponded to half-maximal inhibition in series [4] (IC50). In addition, the “Conc. feces/MIC” value in series [5] came out at 2.4. In series [5], the concentration at 8 h came to 2400 ng/g.

Regarding `O=C(Nc1ncco1)c1cc(-c2cccc(C(F)(F)F)c2)ccn1` [Compound 98, N-(Oxazol-2-yl)-4-(3-(trifluoromethyl)phenyl)picolinamide], the MIC was 0.5 µg/mL (≈ 1.5 µM) in series [1] (setting [9]), 64 µg/mL (≈ 192 µM) in series [6], at least 128 µg/mL in series [2] and at least 128 µg/mL in series [3]. For the same compound, the Selectivity in series [1] (setting [10]) is given as 128. Besides, the IC50 in series [4] came to 115 ± 2.2 µg/mL (≈ 344 µM).

In the case of `COC(=O)c1ccc2oc(NC(=O)c3cc(Oc4ccc(F)c(F)c4)ccn3)nc2c1` [Compound 114, Methyl 2-(4-(3,4-difluorophenoxy)picolinamido)benzo[d]oxazole-5-carboxylate], the MIC is 128 µg/mL (≈ 301 µM) in series [2] and at least 128 µg/mL in series [3]. For the same compound, it took 53.3 ± 3.6 µg/mL (≈ 125 µM) to reach half-maximal inhibition in series [4] (IC50).

For `O=C(Nc1ncco1)c1cc(-c2cccc(F)c2)ccn1` [Compound 93, 4-(3-Fluorophenyl)-N-(oxazol-2-yl)picolinamide], the MIC in series [1] (setting [9]) was 0.5 µg/mL (≈ 1.77 µM); in series [6] it was 64 µg/mL (≈ 226 µM); in series [2], at least 128 µg/mL; in series [3], at least 128 µg/mL. For the same compound, the Selectivity in series [1] (setting [10]) was determined as 128. Further, the IC50 in series [4] is over 64 µg/mL.

With `O=C(Nc1ncco1)c1cc(-c2ccc(F)cc2)ccn1` [Compound 89, 4-(4-Fluorophenyl)-N-(oxazol-2-yl)picolinamide], the MIC is 1 µg/mL (≈ 3.53 µM) in series [1] (setting [9]), 64 µg/mL (≈ 226 µM) in series [6], at least 128 µg/mL in series [2] and at least 128 µg/mL in series [3]. The same compound returned a Selectivity in series [1] (setting [10]) of 64. In series [4], half-maximal inhibition (IC50) was put at 170 ± 2.5 µg/mL (≈ 601 µM).
